Measurements from US9675595B2, “Synergistic combinations of PI3K- and MEK-inhibitors” (Novartis AG, priority 2011, dated 2017).

Test system: Melanoma cell lines
Experiment: Cell line testing, dose matrix, Example 3, melanoma panel
Type: cell-based
Details: melanoma lines with activating NRAS mutation and BRAF mutants
Method: The combination of PI3K inhibitor COMPOUND A and MEK inhibitor COMPOUND B, as defined above, was tested across 38 cell lines from three tissue types (7 pancreas, 10 lung, and 21 melanoma). Each combination was tested in a partially-filled “dose matrix” constructed as follows: Each single drug was dispensed into growth media at a top concentration (11 μM for COMPOUND A or 2.7 μM for COMPOUND B), and serially diluted by 3× to yield a 7 point series covering a factor of 729 in concentration. The compounds were then combined at all pairs of the 2nd through the 6th concentrations, and this dose matrix was extended by also combining the top and bottom concentrations with each other. […] In order to identify cytotoxic treatments, we also determined “Day 0” cell populations at the start of drug treatment.
Cell responses at each treatment were measured using simple inhibitions I=1−T/V, where T is the treated well's raw response and V is the median untreated level between replicate wells on the plate. Cytotoxicity measurements were measured using a “Growth Inhibition” GI=1−(T−V0)/[T<V0? […] The “Synergy Score” SLoewe=ΣX,Y lnfX lnfY max(0,Idata) max(0,Idata−ILoewe) was calculated from the differences between the data Idata and the dose-additive surface ILoewe, across all combined concentrations X,Y, and weighted by the measured inhibition and the single agent dilution factors fX, fY. […]

## Cc1nc(NC(=O)N2CCC[C@H]2C(N)=O)sc1-c1ccnc(C(C)(C)C(F)(F)F)c1 [COMPOUND A, (S)-pyrrolidine-1,2-dicarboxylic acid 2-amide 1-({4-methyl-5-[2-(2,2,2-trifluoro-1,1-dimethyl-ethyl)-pyridin-4-yl]-thiazol-2-yl}-amide)]
  response as a single agent: weak responses
